Results: article PMC7822874, “Chemoprotective antimalarials identified through quantitative high-throughput screening of Plasmodium blood and liver stage parasites” (Scientific Reports, 2021)
Read-outs that look alike come from different tables or passages of the source.

Experiments:
HepG2 = settings: human, hepg2 cells, 48 h
in vitro [1] = settings: human
in vitro [2] = settings: human, hepg2 cells
[3] = tested on: Plasmodium falciparum Dd2 asexual blood stage parasites; test: microbe, parasite or virus in culture; parameters: species or system Plasmodium falciparum Dd2 in human erythrocytes; single determination (one 11-point concentration-response curve); settings: Plasmodium falciparum, DD2, Erythrocyte, 72 h; read-out: AC50
[4] = tested on: P. berghei-ANKA-GFP-LucCON liver stage parasites in HepG2-A16-CD81EGFP cells; test: P. berghei liver stage Pb-Luc assay, Method 1 (UCSD, 1536-well); type: cell-based, Plasmodium berghei; settings: for activity at 1 µM / activity at 3 µM / AC50: Plasmodium berghei; for activity at 1 µM / activity at 3 µM: 48 h, average of 2 wells on a 1536 well plate; for activity at 1 µM: 1 uM (compounds provided at 10 mM); for activity at 3 µM: 3 uM (compounds provided at 10 mM); for Max Resp (signal direction of the dose response) / AC50: Method 1; for Max Resp (signal direction of the dose response): Decrease = decreasing P. berghei viability with dose, Increase = increasing signal, Inactive = no dose response
[5] = HepG2-A16-CD81EGFP cells, uninfected
[6] = column 11, read-out: Pb-Luc (P. berghei liver stage), % of control, lower concentration, first repeat
[7] = column 12, read-out: Pb-Luc (P. berghei liver stage), % of control, lower concentration, second repeat
[8] = column 8, read-out: Pb-Luc (P. berghei liver stage), % of control, higher concentration, first repeat
[9] = column 9, read-out: Pb-Luc (P. berghei liver stage), % of control, higher concentration, second repeat

| Structure (SMILES) | Log AC50 (M) (HepG2) | viability at 48 h, 1 µM (in vitro [1]; [5]) [%] | viability at 48 h, 3 µM (in vitro [1]; [5]) [%] | CC50 at 48 h (in vitro [2]) [µM] | AC50 [3] [µM] | activity at 1 µM [4, 6] [%] | activity at 1 µM [4, 7] [%] | activity at 3 µM [4, 8] [%] | activity at 3 µM [4, 9] [%] | viability at 66 h (in vitro [1]) [%] | viability at 66 h (in vitro [1]; [5]) [%] | Max Resp (signal direction of the dose response) [4] | viability at 48 h (in vitro [1]; [5]) [%] | viability at 48 h (in vitro [1]) [%] | viability at 48 h, 1 µM (in vitro [1]) [%] | AC50 ([4]; Hill fit, 50% of maximum activity response, read-out: AC50) [µM] | AC50 ([4]; log10 of molar AC50 from Hill fit, read-out: Log AC50 (converted)) [µM] |
| --- | --- | --- | --- | --- | --- | --- | --- | --- | --- | --- | --- | --- | --- | --- | --- | --- | --- |
| Cc1cc(N)c2cc(NC(=O)/C=C/c3ccccc3Cl)ccc2n1 [MLS000737665-01] | -4.3643 | 105 | 108 | 43.2 | 1.88 | 86 | 67 | 21 | 37 | – | – | – | – | – | – | – | – |
| Cc1cc(Cl)c(S(=O)(=O)N2CCN(c3ccccn3)CC2)cc1OCC(=O)NC1CCCCC1 [MLS000693481-01] | -4.5643 | 91 | 105 | 27.3 | 0.668 | 102 | 96 | 68 | 80 | – | – | – | – | – | – | – | – |
| CCCN(CCC)CCCN=C(S)Nc1ccc2nc(N3CCCC3)cc(C)c2c1 [MLS000730709-01] | -4.3643 | 112 | 103 | 43.2 | – | 141 | 128 | 67 | 66 | – | – | – | – | – | – | – | – |
| N=c1c2c(n(Cc3ccc(F)cc3)c3c1CCC3)CCCC2 [MLS000856097-01] | -4.7643 | 105 | 81 | 17.2 | 2.99 | 60 | 59 | 19 | 15 | – | – | – | – | – | – | – | – |
| CCN1CCN(Cc2ccc(NC(=O)c3ccc(C)c(NC(=O)c4cnc5cc(C(F)(F)F)ccc5c4O)c3)cc2C(F)(F)F)CC1 [MLS000911561-01] | -4.4643 | 107 | 104 | 34.3 | 0.531 | – | – | – | – | – | – | – | – | – | – | – | – |
| CCN1CC=C(c2c[nH]c3ccccc23)CC1 [MLS000093713-01] | -4.6143 | – | – | 24.3 | 4.22 | – | – | – | – | 103 | – | – | – | – | – | – | – |
| COc1ccc(/C=N/Nc2cc(C)nc3ccccc23)cc1 [MLS001210939-01] | -4.5143 | 92 | 87 | 30.6 | 2.11 | – | – | – | – | – | – | – | – | – | – | – | – |
| Cc1cc(O)c(-c2cc(C(=O)Nc3sc4c(c3C(=O)NCc3ccco3)CCC4)[nH]n2)cc1C [MLS000331999-01] | -4.4643 | – | – | 34.3 | – | – | – | – | – | – | 106 | Inactive | – | – | – | – | – |
| O=C(NC(c1ccc(Cl)cc1)c1cc(Cl)c2cccnc2c1O)c1cccnc1 (stereo not drawn) [MLS000573463-01] | -4.3643 | 84 | 68 | 43.2 | 5.96 | – | – | – | – | – | – | – | – | – | – | – | – |
| CC(Sc1nc2ccccc2c(=O)n1C)C(=O)Nc1ccc2c(c1)OCCO2 (stereo not drawn) [MLS002161477-01] | -4.3643 | 84 | – | 43.2 | – | – | – | – | – | – | – | Inactive | 84 | – | – | – | – |
| CCn1c(/C=C/c2cc(Br)ccc2O)nc2ccccc2c1=O [MLS001205008-01] | -4.8643 | 104 | 101 | 13.7 | 4.22 | – | – | – | – | – | – | – | – | – | – | – | – |
| CC(C)CN(Cc1cc(=O)oc2cc(-c3ccccc3)c(O)cc12)CC(C)C [MLS000779012-01] | -4.3643 | 98 | 101 | 43.2 | – | 87 | 88 | 59 | 60 | – | – | – | – | – | – | – | – |
| CN1CCC(NCCC(c2ccc(F)cc2)c2ccc(Cl)cc2)CC1 (stereo not drawn) [MLS001215866-01] | -4.4643 | – | – | 34.3 | 4.22 | – | – | – | – | – | 98.6 | – | – | – | – | – | – |
| Cc1cnc(C(=O)Nc2cccc3cccnc23)cn1 [MLS000033120-01] | -6.2143 | – | – | 0.611 | 2.66 | – | – | – | – | – | 105 | – | – | – | – | – | – |
| CN(C)CC(CCC(CN(C)C)C(O)(c1ccccc1)c1ccccc1)C(O)(c1ccccc1)c1ccccc1 (stereo not drawn) [MLS001173677-01] | -4.4643 | 101 | 98 | 34.3 | 2.11 | – | – | – | – | – | – | – | – | – | – | – | – |
| c1ccc(-c2nc(N3CCCCCC3)c3ccccc3n2)nc1 [MLS000042263-01] | -5.5643 | 102 | 88 | 2.73 | 1.68 | – | – | – | – | – | – | – | – | – | – | – | – |
| COc1ccc(C2c3ccc4ccccc4c3Oc3ncn(CCCN(C)C)c(=N)c32)cc1 (stereo not drawn) [MLS001216280-01] | -4.4643 | 109 | 103 | 34.3 | 2.99 | – | – | – | – | – | – | – | – | – | – | – | – |
| O=C1NC(=S)S/C1=C\C=C\c1ccc([N+](=O)[O-])o1 [MLS000722913-01] | -4.8643 | 112 | 101 | 13.7 | 5.31 | 80 | 77 | 57 | 67 | – | – | – | – | – | – | – | – |
| O=C(Nc1nc(-c2ccccn2)cs1)Nc1ccc(F)cc1F [MLS001175659-01] | -4.7643 | 94 | 79 | 17.2 | 5.31 | – | – | – | – | – | – | – | – | – | – | – | – |
| ClC(Cl)(Cl)c1nc2ccccc2n2nncc12 [MLS001171504-01] | -4.3643 | 106 | 95 | 43.2 | 2.11 | 113 | 83 | 87 | 102 | – | – | – | – | – | – | – | – |
| COc1ccc2nc3cc(Cl)ccc3c(Nc3cc(C(C)C)c(O)cc3C)c2c1 [MLS000737404-01] | -4.3643 | 112 | 95 | 43.2 | 0.266 | 113 | 97 | 61 | 53 | – | – | – | – | – | – | – | – |
| CC(=O)Nc1ccc(NC2=Nc3ccccc3N3C2=Nc2c(c(C)nn2-c2ccccc2)C3c2ccccc2)cc1 (stereo not drawn) [MLS000555438-01] | -4.3143 | – | – | 48.5 | 6.68 | – | – | – | – | – | 95.3 | – | – | – | – | – | – |
| OC(c1cc(-c2ccc(C(F)(F)F)cc2)nc(C(F)(F)F)c1)C1CCCCN1 (stereo not drawn) [MLS000757046-01] | -4.3643 | 109 | 105 | 43.2 | 0.15 | – | – | – | – | – | – | – | – | – | – | – | – |
| Cc1cccc(NC2=C/C(=N\S(=O)(=O)c3cccs3)c3ccccc3C2=O)c1 [MLS000585840-01] | -4.4643 | 113 | 95 | 34.3 | 0.168 | 90 | 90 | 37 | 41 | – | – | – | – | – | – | – | – |
| CCOc1ccc(Nc2nc(NCC3CCCO3)c3ccccc3n2)cc1 (stereo not drawn) [MLS000724397-01] | -4.3643 | 104 | 83 | 43.2 | 1.88 | – | – | – | – | – | – | – | – | – | – | – | – |
| CN1C2CCC1/C(=C/c1ccccn1)C(=O)/C2=C\c1ccccn1 [MLS000702810-01] | -4.8143 | – | – | 15.3 | – | – | – | – | – | – | – | Decrease | – | 76.4 | 76.4 | 0.794 | 0.794 |
| COc1cc2nc(Nc3ccc(C)c(C)c3)nc(N)c2cc1OC [NCGC00107261-01] | -4.3643 | 107 | 97 | 43.2 | 0.75 | – | – | – | – | – | – | – | – | – | – | – | – |
| c1ccc2cc3c(NCCN4CCOCC4)ccnc3cc2c1 [MLS000702892-01] | -4.3643 | 89 | 92 | 43.2 | 1.68 | – | – | – | – | – | – | – | – | – | – | – | – |
